According to patent US20150309031A2, “COMPOSITIONS AND METHODS FOR PROGNOSIS AND TREATMENT OF CANCER” (NOVAZOI THERANOSTICS, priority 2013, published 2015):

Legend:
Type in all cases: cell-based
[1] = tested on: mammary fibrocystic (MCF10A) cells; experiment: subG1 (hypodiploid) fraction by flow cytometry, MCF10A cells; settings: for change of peak subG1 percent compared to controls (in words): MCF10A cells; for Peak subG1 percent over 48 h: MCF10A
MCF10A cells = experiment: Centrosome amplification (CA) by microscopy, MCF10A cells; settings: for change of CA over control levels (in words): interphase and mitotic cells, over 24 h
Protocol: (§1) Consequently, CA was assessed in cultures treated with different concentrations of declustering drugs for 6, 12, 18, or 24 h and untreated controls via microscopy. Centrosomes were identified by γ-tubulin and centrin-2 colocalization at discrete foci. […] The peak percent CA detected over 24 h is shown in FIG. 6 (only statistically significant (P<0.05) increases over control values are represented in the Figures). Representative confocal micrographs of CA in interphase and mitotic cells, both control and drug treated, are depicted in FIG. 7. No significant correlations between the degree of CA (FIG. 5A) and the expression levels of PLK4, Cyclin E, and Aurora A were found (FIG. 4).
(§2) To determine whether the CA-inducing activity of declustering drugs is restricted to cancer cells, two non-malignant cell lines, mammary fibrocystic (MCF10A) cells and adult human dermal fibroblasts were treated with these drugs. Neither one of RBN, GF or PJ induced CA or cell death (Table 8) in these cell lines. […] In comparison, 10 and 25 μM RBN increased peak CA over controls in interphase cells (p<0.001 and p=0.001, respectively), with the lower concentration dramatically augmenting peak CA to 56% of cells versus 15% for the higher dose (FIG. 9B). Only 10 but not 25 μM RBN increased the extent of CA in mitotic cells, and this upregulation was only slight (10%, p=0.041).

MDA-MB-231 (231) cells = experiment: subG1 (hypodiploid) fraction by flow cytometry, 231 cells
Protocol: (§3) Trypsinized cells were resuspended in PBS at 10^6 cells/ml. Cells were then fixed by addition of ice-cold 70% ethanol. Ethanol-fixed cells were kept overnight at 4° C. before staining. Cells were pelleted and washed twice with PBS. Cell pellets were incubated for an hour at room temperature with mouse anti-MPM-2 antibody (Millipore, Mass., USA), followed by 1 h incubation with Alexa-488 anti-mouse secondary antibody (Life Technologies, NY, USA). Finally cells were washed, pelleted and resuspended in propidium iodide-containing isotonic buffer (0.1 mg/mL) and 0.5% Triton X-100. Cell cycle distribution was determined by flow cytometry using an LSR Fortessa Flow cytometer (BD Biosciences, CA, USA) and analyzed using Flowjo software (Tree Star, OR, USA). […] The duration, highest degree, and rapidity of onset of MA varied between drugs, drug concentrations, and cell lines (FIGS. 2A, 2B). In general, the maximum MA achieved was less pronounced in Nos- and PJ-treated cells (FIGS. 2A, 2B). Drug-induced onset of MA was corroborated by substantial increases in cyclin B1 levels in all cell lines (FIG. 2C). […] Instances where the subG1 fraction was elevated without cleaved caspase-3 may either represent caspase-independent cell death or the presence of hypodiploid cells whose fate is unclear.

PC3 cells = experiment: subG1 (hypodiploid) fraction by flow cytometry, PC3 cells
Protocol: as §3

[2] = tested on: human dermal fibroblasts (HDFs); experiment: Centrosome amplification (CA) by microscopy, HDFs; settings: for change of CA over controls (in words): any concentration or time point assessed
Protocol: as §1, §2

HDFs and MCF10A cells = experiment: Spindle multipolarity (MP) in non-malignant cell lines
[3] = tested on: adult human dermal fibroblasts (HDF); experiment: subG1 (hypodiploid) fraction by flow cytometry, HDFs
HeLa cells [4] = experiment: subG1 (hypodiploid) fraction by flow cytometry, HeLa cells
Protocol: as §3

231 cells = experiment: Centrosome amplification (CA) by microscopy, 231 cells; settings: 25 μM
Protocol: (§4) Consequently, CA was assessed in cultures treated with different concentrations of declustering drugs for 6, 12, 18, or 24 h and untreated controls via microscopy. […] The peak percent CA detected over 24 h is shown in FIG. 6 (only statistically significant (P<0.05) increases over control values are represented in the Figures). Representative confocal micrographs of CA in interphase and mitotic cells, both control and drug treated, are depicted in FIG. 7. […] To better understand the “potency” of drug-induced CA with time, the average fold change in CA over controls over 24 h was assessed (FIG. 5A), whereby the extent of CA across time points (i.e., 6, 12, 18, and 24 h) was averaged and then divided by the extent of CA in control (i.e., 0 h). […] For Nos and BN, there was no major difference in CA levels in interphase versus mitotic cells.

[5] = tested on: MDA-MB-231 (231), PC3, and HeLa cells; experiment: Mitotic arrest (MA) by flow cytometry (MPM2/PI), across cell lines; settings: coarse-grained categories
Protocol: Trypsinized cells were resuspended in PBS at 10^6 cells/ml. Cells were then fixed by addition of ice-cold 70% ethanol. Ethanol-fixed cells were kept overnight at 4° C. before staining. Cells were pelleted and washed twice with PBS. Cell pellets were incubated for an hour at room temperature with mouse anti-MPM-2 antibody (Millipore, Mass., USA), followed by 1 h incubation with Alexa-488 anti-mouse secondary antibody (Life Technologies, NY, USA). Finally cells were washed, pelleted and resuspended in propidium iodide-containing isotonic buffer (0.1 mg/mL) and 0.5% Triton X-100. Cell cycle distribution was determined by flow cytometry using an LSR Fortessa Flow cytometer (BD Biosciences, CA, USA) and analyzed using Flowjo software (Tree Star, OR, USA).
To evaluate the impact of putative declustering drugs on cell cycle progression and hypodiploidy (<2N DNA content, which may indicate apoptotic cells), MDA-MB-231 (231), PC3, and HeLa cells were treated with different concentrations of declustering drugs, stained with propidium iodide, labeled with anti-MPM2 antibody, and then assessed by flow cytometry at multiple time points over 48 h. […] The duration, highest degree, and rapidity of onset of MA varied between drugs, drug concentrations, and cell lines (FIGS. 2A, 2B). In general, the maximum MA achieved was less pronounced in Nos- and PJ-treated cells (FIGS. 2A, 2B). […]

HeLa cells [6] = experiment: Centrosome amplification (CA) by microscopy, HeLa cells; settings: interphase, 25 μM
Protocol: as §4

Row | Structure (SMILES) | change of peak subG1 percent compared to controls (in words) [1] | Peak subG1 percent over 48 h ([1]; 25 μM) [%] | Peak subG1 percent over 48 h (MDA-MB-231 (231) cells; 25 μM) [%] | maximum subG1 fraction relative to control (MDA-MB-231 (231) cells; 25 μM) [× control] | Peak subG1 percent over 48 h (PC3 cells; 25 μM) [%] | induction of MP over control levels (HDFs and MCF10A cells) | Peak subG1 percent over 48 h ([3]; 25 μM) [%] | Peak subG1 percent over 48 h (HeLa cells [4]; 25 μM) [%] | Peak subG1 percent over 48 h ([1]; 10 μM) [%] | change of CA over control levels (in words) (MCF10A cells) | Peak subG1 percent over 48 h (MDA-MB-231 (231) cells; 10 μM) [%] | Peak subG1 percent over 48 h (PC3 cells; 10 μM) [%] | change of CA over controls (in words) [2] | Peak subG1 percent over 48 h ([3]; 10 μM) [%] | Peak subG1 percent over 48 h (HeLa cells [4]; 10 μM) [%] | further results
1 | COC1=CC(=O)C[C@@H](C)[C@]12Oc1c(Cl)c(OC)cc(OC)c1C2=O [GF, griseofulvin] | did increase peak SubG1 in MCF10A cells compared to controls | 22.7 | 62.0 | 6.4 | 33.7 | significantly induce MP over control levels | 32.9 | 59.5 | – | – | – | – | – | – | – | Peak subG1 percent over 48 h ([1]; 50 μM): 35.1%; peak interphase CA (MCF10A cells; interphase, 25 and 50 μM): 13-16%; change of CA in mitotic cells (in words) (MCF10A cells; mitotic, 25 and 50 μM): no increase was observed in mitotic cells; Peak subG1 percent over 48 h (MDA-MB-231 (231) cells; 50 μM): 60.0%; Peak subG1 percent over 48 h (PC3 cells; 50 μM): 39.5%; maximum subG1 fraction relative to control (PC3 cells; 50 μM): 16.3 × control; peak CA in interphase cells ([2]; interphase, 25 and 50 μM): 14-15%; Peak subG1 percent over 48 h ([3]; 50 μM): 38.3%; Peak subG1 percent over 48 h (HeLa cells [4]; 50 μM): 79.0%; maximum subG1 fraction relative to control (HeLa cells [4]; 50 μM): 4.3 × control
2 | COc1ccc2c(c1OC)C(=O)O[C@@H]2[C@H]1c2c(cc3c(c2OC)OCO3)CCN1C [Nos, noscapine] | did not cause a significant increase in peak subG1 percent compared to controls | 4.2 | 43.9 | – | 32.7 | – | 11.2 | 50.1 | 4.1 | neither concentrations of Nos or BN significantly increased CA over control levels | 26.3 | 29.9 | did not significantly increase the extent of CA over controls | 14.8 | 25.0 | induction of significant CA (231 cells): failed to induce significant CA
3 | CN(C)CC(=O)Nc1ccc2[nH]c(=O)c3ccccc3c2c1 [PJ, PJ-34] | did not cause a significant increase in peak subG1 percent compared to controls | 9.1 | 55.0 | 10.4 | 48.4 | significantly induce MP over control levels | 28.2 | 64.4 | 6.9 | increased the peak extent of CA in interphase and mitotic cells | 37.0 | 62.4 | no significant impact on CA in HDFs | 13.6 | 48.5 | peak extent of CA in interphase cells (MCF10A cells; interphase, 10 μM): 8%; maximum subG1 fraction relative to control (PC3 cells; 25 μM): 7.9 × control; mean time to peak MA (MA:TRH) [5]: ~12 h; fold increase in peak CA extent, interphase cells (HeLa cells [6]): ~20 fold; peak / final extent of CA in interphase cells (HeLa cells [6]): < 20%; maximum subG1 fraction relative to control (HeLa cells [4]; 10 μM): 4.8 × control
